We go through eleven compounds from ChEMBL document CHEMBL1201862, “PubChem BioAssay data set” (2004).

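Test compounds were applied to cells in 96-well plates for 48 hours at 5 doses. Abbreviation: GI50, concentration required for 50% inhibition of growth.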 Activity calls are given as the source filed them. Rule as the data show it: active = GI50 up to about 1.1 µM and inactive = higher. Some results are limits rather than exact numbers.

What all share (test): NCI-60 cell line screen, 48 h
Assay [1] concerns NCI-H522.
For assay [2], the system named is HCC 2998.
Assay [3] concerns M14.
Assay [4] deals with HCT-15.
Assay [5] relates to DU-145.
Assay [6] concerns NCI/ADR-RES.
In assay [7] the test system is SK-MEL-5.
The test system of assay [8] is Malme-3M.
Assay [9] relates to UACC-62.
Assay [10] deals with T47D.
For assay [11], the system named is SW-620.
Assay [12] has as its system MCF7.
The test system of assay [13] is OVCAR-8.
In assay [14] the test system is UO-31.
The subject of assay [15] is SK-OV-3.
Assay [16] relates to SF-268.
Assay [17] relates to SN12C.
In assay [18] the test system is OVCAR-5.
Assay [19] has as its system IGROV-1.
Assay [20] has as its system LXFL 529.

Take `CCOC(=O)c1c(Br)c(-c2ccc(Br)cc2)c(Br)n1C`: the GI50 in [1] was 9.38 µM (inactive); in assay [2], 19.5 µM (inactive); in assay [3], 18.8 µM (inactive); in assay [4], 13 µM; in [5] it was 31.1 µM (inactive); in assay [6] it was 5.38 µM (inactive). The GI50 in assay [7] was 17.5 µM (inactive); in [8], 18.5 µM (inactive); in [9], 9.27 µM (inactive); in assay [10], 10.5 µM (inactive); in assay [11], 23.2 µM (inactive); in [12], 22.8 µM (inactive). Besides, the GI50 in assay [13] is 28.8 µM (inactive); in assay [14] it was 17.9 µM (inactive); in [15], 32.8 µM (inactive); in assay [16], 19.7 µM (inactive); in [17], 25.2 µM (inactive); in assay [18], 19.4 µM (inactive). The GI50 in assay [19] was 12.2 µM (inactive).
Consider `CC(C)C(OC(=O)c1cc(NC(=S)c2ccccc2)ccc1Cl)C(C)C`, for which the GI50 in [1] was 8.51 µM (inactive); in [2], 12.4 µM (inactive); in assay [3], 31.7 µM (inactive); in assay [4] it was 9.27 µM; in assay [5], 24.2 µM (inactive); in assay [6], 16.3 µM (inactive). Moreover, the GI50 was 14.2 µM (inactive) in assay [7]; 20.4 µM (inactive) in assay [8]; 11.8 µM (inactive) in assay [9]; 7.85 µM (inactive) in [10]; 21.8 µM (inactive) in assay [11]; 17.3 µM (inactive) in assay [12]. In addition, the GI50 in assay [13] was 22.9 µM (inactive); in assay [14] it was 11.4 µM (inactive); in assay [15] it was 32.4 µM (inactive); in assay [16], 23 µM (inactive); in assay [17], 14.7 µM (inactive); in assay [18], 42.7 µM (inactive). In [19], the GI50 was 33 µM (inactive).
For the compound `O=c1c2cc([N+](=O)[O-])cnc2sn1-c1ccc(Br)cc1`, the GI50 in assay [1] is 5.5 µM (inactive); in assay [2] it was 91 µM (inactive); in assay [3] it was 53 µM (inactive); in [4], 57.4 µM; in assay [5] it was > 100 µM (inactive); in assay [6], 33.9 µM (inactive). Besides, the GI50 in [7] is > 100 µM (inactive); in [8], 19.1 µM (inactive); in assay [9], 82.4 µM (inactive); in assay [10] it was 6.32 µM (inactive); in assay [11], 28.3 µM (inactive); in [12], 26 µM (inactive). The GI50 in assay [13] was > 100 µM (inactive); in [14], 51.3 µM (inactive); in assay [15], 14.8 µM (inactive); in assay [16], 27.5 µM (inactive); in assay [17] it was 72.6 µM (inactive); in assay [18], 38.4 µM (inactive). For the same compound, the GI50 in [19] was 81.7 µM (inactive).
In the case of `CC(=O)C1C(c2ccccc2)C2(C)OC(=O)C(C#N)C12C` (centres undefined), the GI50 in [3] is > 100 µM (inactive); in [20] it was > 100 µM (inactive); in [4] it was > 100 µM; in [7], > 100 µM (inactive); in assay [8], > 100 µM (inactive); in assay [9] it was > 100 µM (inactive). Also, the GI50 in assay [11], in [13], in [14], in [15], in assay [16] and in [17] was > 100 µM (inactive) throughout. Also, the GI50 in assay [18] and in [19] was > 100 µM (inactive) in each case.
In the case of `COc1cc(C2c3[nH]c4ccc(F)cc4c3C[C@H]3COC(=O)N23)cc(OC)c1O` (some centres undefined), the GI50 in assay [1] is 15 µM (inactive); in [2] it was 14.1 µM (inactive); in assay [3], 17 µM (inactive); in [4], 8.69 µM; in assay [5], 15.9 µM (inactive); in assay [6], 4.93 µM (inactive). Further, the GI50 in assay [7] is 10.7 µM (inactive); in assay [8], 14.7 µM (inactive); in [9] it was 12.1 µM (inactive); in assay [10] it was 32.5 µM (inactive); in assay [11] it was 9.46 µM (inactive); in [12], 3.33 µM (inactive). For the same compound, the GI50 is 10.1 µM (inactive) in [13]; 12.6 µM (inactive) in assay [14]; 15.5 µM (inactive) in [15]; 11.5 µM (inactive) in [16]; 13.5 µM (inactive) in assay [17]; 18.8 µM (inactive) in [18]. Moreover, the GI50 in assay [19] is 13.2 µM (inactive).
In the case of `COc1ncc(C#CC(=O)c2ccccc2OC)c(OC)n1`, the GI50 in assay [1] was 0.738 µM (active); in assay [2] it was 6.35 µM (inactive); in [3] it was 1.78 µM (inactive); in assay [4], 0.621 µM; in [5], 5.87 µM (inactive); in assay [6], 2.01 µM (inactive). Further, the GI50 in [7] was 2.06 µM (inactive); in assay [8], 1.61 µM (inactive); in assay [9], 2.6 µM (inactive); in assay [10] it was 2.93 µM (inactive); in assay [11], 0.78 µM (active); in assay [12], 0.736 µM (active). Moreover, the GI50 in assay [13] was 2.06 µM (inactive); in assay [14] it was 1.55 µM (inactive); in assay [15] it was 25.6 µM (inactive); in assay [16], 3.61 µM (inactive); in assay [17], 0.684 µM (active); in assay [18] it was 3.41 µM (inactive). Also, in assay [19], the GI50 is 1.82 µM (inactive).
For the compound `COc1ccc2c(c1)-c1nc(=S)n(CCN(C)C)c3ccc([N+](=O)[O-])c(c13)N2`, the GI50 is 0.533 µM (active) in assay [1]; 0.809 µM (active) in assay [2]; 2.94 µM (inactive) in assay [3]; 0.731 µM in assay [4]; 0.923 µM (active) in assay [5]; 1.09 µM (active) in assay [6]. In addition, the GI50 in assay [7] was 3.65 µM (inactive); in assay [8] it was 0.693 µM (active); in assay [9], 10.6 µM (inactive); in assay [10], 4.81 µM (inactive); in [11], 0.404 µM (active); in assay [12] it was 0.861 µM (active). The GI50 was 0.484 µM (active) in [13]; 0.794 µM (active) in assay [14]; 0.57 µM (active) in assay [15]; 0.671 µM (active) in assay [16]; 0.638 µM (active) in assay [17]; 3.13 µM (inactive) in assay [18]. In addition, in assay [19], the GI50 was 0.832 µM (active).
As to `C[Si](C)(c1ccccc1)[C@H]1CCCC=C1CCNC1c2ccccc2CCc2ccccc21`, the GI50 in [1] was 50.8 µM (inactive); in assay [2], > 100 µM (inactive); in [3], 56.5 µM (inactive); in assay [4], 51.2 µM; in assay [5], > 100 µM (inactive); in assay [6], 76.2 µM (inactive). For the same compound, the GI50 in assay [7] is 33.6 µM (inactive); in assay [8], 80 µM (inactive); in [9], 61.4 µM (inactive); in assay [10] it was 35.9 µM (inactive); in [11], > 100 µM (inactive); in assay [12], 53 µM (inactive). In addition, the GI50 was > 100 µM (inactive) in assay [13]; 49.5 µM (inactive) in [14]; > 100 µM (inactive) in assay [15]; > 100 µM (inactive) in [16]; > 100 µM (inactive) in assay [17]; > 100 µM (inactive) in [18]. Further, in [19], the GI50 is 49.7 µM (inactive).
Take `CSCCC(NC(=O)Cc1ccc(C(=O)c2ccccc2)cc1)C(=O)O` (centres undefined): the GI50 in assay [1] was > 100 µM (inactive); in assay [2], > 100 µM (inactive); in assay [3] it was > 100 µM (inactive); in assay [4], > 100 µM; in assay [5] it was > 100 µM (inactive); in [6], > 100 µM (inactive). In addition, the GI50 in assay [7], in assay [8], in assay [9], in [10], in assay [11] and in assay [12] was > 100 µM (inactive) in each case. The GI50 in assay [13], in assay [14], in assay [15], in assay [16], in assay [17] and in assay [18] was > 100 µM (inactive) in each case. Also, the GI50 in [19] was > 100 µM (inactive).
On to `CN(c1ccccc1)S(=O)(=O)c1ccccc1[N+](=O)[O-]`, for which the GI50 was 64.3 µM (inactive) in assay [1]; > 100 µM (inactive) in assay [2]; > 100 µM (inactive) in [3]; > 100 µM in [4]; > 100 µM (inactive) in assay [5]; > 100 µM (inactive) in [6]. Besides, the GI50 in assay [7] is > 10 µM (inactive); in [8], > 100 µM (inactive); in assay [9], > 100 µM (inactive); in assay [10] it was 62.5 µM (inactive); in assay [11], > 100 µM (inactive); in [12], > 100 µM (inactive). In addition, the GI50 in [13], in assay [14], in [15], in assay [16], in [17] and in assay [18] was > 100 µM (inactive) each time. Also, in assay [19], the GI50 is > 100 µM (inactive).
Consider `CC(C)C(NC(=O)C(Cc1ccccc1)NC(=O)[C@H]1CCC[C@H]1NC(=O)C(Cc1ccc(OC(C)(C)C)cc1)NC(=O)OC(C)(C)C)C(N)=O` (some centres undefined), for which the GI50 in assay [1] is 14.9 µM (inactive); in assay [2] it was 16.5 µM (inactive); in [3], 18 µM (inactive); in [4], 36.1 µM; in assay [5], 54.2 µM (inactive); in assay [6], > 100 µM (inactive). Moreover, the GI50 in assay [7] was 9.95 µM (inactive); in [8] it was > 10 µM (inactive); in assay [9] it was 13.8 µM (inactive); in assay [10] it was 20 µM (inactive); in [11], 20.9 µM (inactive); in assay [12], 19.8 µM (inactive). The GI50 was 16.6 µM (inactive) in assay [13]; 47.4 µM (inactive) in assay [14]; 17.9 µM (inactive) in assay [15]; 23.1 µM (inactive) in assay [16]; 18.2 µM (inactive) in assay [17]; 18.8 µM (inactive) in assay [18]. The GI50 in [19] was 31.3 µM (inactive).
